Measurements taken from patent US7122563B2, “Derivatives of 4-demethylpenclomedine, use thereof and preparation thereof” (Southern Research Institute, priority 2005, dated 2006).

Columns and labels:
MX-1 Mammary Tumor = assay: MX-1 mammary tumor implanted in the mammary fat pad of mice, i.p. treatment
[1] = rats; cited from earlier work
[2] = test system: U251 human glioblastoma xenograft; assay: Intracranially-implanted U251 human glioblastoma xenograft, survival; type: in vivo; details: for increase in life span (ILS): intracranially-implanted U251, side-by-side experiment
Source text: (§1) Treatment of i.c. implants is initiated 1 day after tumor implantation and continued for 5 days. Mice are monitored daily for survival.

[3] = Behavioral test of neurotoxicity (tremors); type: in vivo; details: DM-SMTC-PEN evaluated simultaneously with PEN
Source text: A major concern for the penclomedine (PEN) series of derivatives is their possible neurotoxicity. PEN was removed from clinical development as a potential drug for treating breast cancer because of its dose-limiting neurotoxicity.

[4] = test system: D54 human glioblastoma multiforme; assay: Intracranially-implanted D54 human glioblastoma multiforme, survival; type: in vivo
Source text: as §1

[5] = after both intravenous and oral administration, related to peak plasma levels; cited from earlier work
[6] = IP 135 mg/kg/dose, Days 15–19, groups of 5 mice
[7] = IP 135 mg/kg/dose, Days 13-17, groups of 5 mice
[8] = IP 60 mg/kg/dose, Days 15–19, groups of 5 mice

Q: With `COc1nc(C(Cl)(Cl)Cl)c(Cl)c(O)c1Cl` [4-DM-PEN, 3,5-Dichloro-2-methoxy-4-hydroxy-6-(trichloromethyl)pyridine, reference compound] as the compound, how does the “Growth Delay (T-C)” value (MX-1 Mammary Tumor; IP 135 mg/kg/dose, Days 15–19) read?
A: 32.8

Q: What about the “Tumor-free Survivors” value (MX-1 Mammary Tumor; IP 135 mg/kg/dose, Days 15–19) of the same compound?
A: 0/5

Q: And the “Regressions Complete” value (MX-1 Mammary Tumor; [6])?
A: 0

Q: And the “Regressions Partial” value (MX-1 Mammary Tumor; [6])?
A: 2

Q: What about the cerebellar damage [1] of the same compound?
A: cerebellar damage only in the PEN-treated group

Q: Which results are given for `CCN(CC)C(=S)Oc1c(Cl)c(OC)nc(C(Cl)(Cl)Cl)c1Cl` [DM-DETC-PEN]?
A: Growth Delay (T-C) (MX-1 Mammary Tumor; IP 135 mg/kg/dose, Days 15–19): >35.2; Tumor-free Survivors (MX-1 Mammary Tumor; IP 135 mg/kg/dose, Days 15–19): 1/5; Regressions Complete (MX-1 Mammary Tumor; [6]): 1; Regressions Partial (MX-1 Mammary Tumor; [6]): 1

Q: For `COc1nc(C(Cl)(Cl)Cl)c(Cl)c(OC(=S)N(C)C)c1Cl` [DM-DMTC-PEN], which “Growth Delay (T-C)” value (MX-1 Mammary Tumor; IP 135 mg/kg/dose, Days 13-17) is on record?
A: >37.0

Q: What about the “Tumor-free Survivors” value (MX-1 Mammary Tumor; IP 135 mg/kg/dose, Days 13-17) of the same compound?
A: 3/5

Q: And the “Regressions Complete” value (MX-1 Mammary Tumor; [7])?
A: 4

Q: What about the “Regressions Partial” value (MX-1 Mammary Tumor; [7]) of the same compound?
A: 1

Q: What about the “increase in life span (ILS)” value [2] of the same compound?
A: 44%

Q: What does the source list for `CCSC(=O)Oc1c(Cl)c(OC)nc(C(Cl)(Cl)Cl)c1Cl` [DM-SETC-PEN]?
A: Growth Delay (T-C) (MX-1 Mammary Tumor; IP 60 mg/kg/dose, Days 15–19): >35.2; Tumor-free Survivors (MX-1 Mammary Tumor; IP 60 mg/kg/dose, Days 15–19): 1/5; Regressions Complete (MX-1 Mammary Tumor; [8]): 2; Regressions Partial (MX-1 Mammary Tumor; [8]): 3

Q: With `COc1nc(C(Cl)(Cl)Cl)c(Cl)c(OC(=O)SC)c1Cl` [DM-SMTC-PEN] as the compound, how does the “Growth Delay (T-C)” value (MX-1 Mammary Tumor; IP 60 mg/kg/dose, Days 15–19) read?
A: >41.6

Q: What about the “Tumor-free Survivors” value (MX-1 Mammary Tumor; IP 60 mg/kg/dose, Days 15–19) of the same compound?
A: 2/5

Q: What about the “Regressions Complete” value (MX-1 Mammary Tumor; [8]) of the same compound?
A: 2

Q: And the “Regressions Partial” value (MX-1 Mammary Tumor; [8])?
A: 2

Q: And the “neurotoxicity (production of tremors)” value [3]?
A: non-neurotoxic

Q: And the “activity against intracranially-implanted U251” value ([2]; compared with the acyl derivatives)?
A: comparably active to the acyl derivatives

Q: What about the “increase in life span (ILS)” value [2] of the same compound?
A: 56%

Q: What about the “increase in life span” value [4] of the same compound?
A: 18%

Q: What does the source list for `COc1nc(C(Cl)(Cl)Cl)c(Cl)c(OC(=O)Sc2ccccc2)c1Cl` [DM-SPTC-PEN]?
A: Growth Delay (T-C) (MX-1 Mammary Tumor; IP 135 mg/kg/dose, Days 15–19): >35.2; Tumor-free Survivors (MX-1 Mammary Tumor; IP 135 mg/kg/dose, Days 15–19): 1/5; Regressions Complete (MX-1 Mammary Tumor; [6]): 2; Regressions Partial (MX-1 Mammary Tumor; [6]): 2

Q: Which results are given for `COc1nc(C(Cl)(Cl)Cl)c(Cl)c(OC)c1Cl` [PEN, 3,5-dichloro-2,4-dimethoxy-6-(trichloromethyl) pyridine]?
A: neurotoxicity (production of tremors) [3]: production of tremors; neurotoxicity in clinical trials [5]: dose-limiting neurotoxicity was observed; cerebellar damage [1]: cerebellar damage only in the PEN-treated group
